Assay results from US20050090474A1, “Methods and compositions for enhancing and inhibiting fertilization” (priority 2002, published 2005).
Entries after “also recorded” stand apart in the source; their conditions may differ.

What was measured:
Format in all cases: cell-based
[1] = tested on: capacitated human spermatozoa; experiment: Drug effect on acrosome reaction; set-up: Acrosome reaction: unit not given here; conditions: for Acrosome reaction (AR) stimulated by inducer: inducer alone, stimulation over control; for AR stimulated by A23187 in the presence of inhibitor / stimulated AR observed in the presence of progesterone and hZP-3, effect of inhibitor: Table 1; for stimulated AR observed in the presence of progesterone and hZP-3, effect of inhibitor: progesterone- and hZP-3-stimulated AR
Protocol: (§1) Sperm capacitation—Isolated sperm samples were incubated for 3 hours at 36° C. in HAM's F-10 medium supplemented with 0.3% BSA as in Rotem et al., 1990a, b
Drug effect on acrosome reaction—To test the involvement of MAPK cascade proteins on acrosome reaction the following drugs were added to the incubation medium: Progesterone (Sigma-Aldrich Corp., St Louis, Mo., USA), hZP-3 (human zona pellucida protein 3, obtained from P. Salling, N.C., USA) diluted in MOCK (F-10 medium containing 0.1% DMSO, Biological Industries, Beth Ha'Emek, Israel), A23187 (calcium ionophore, Calbiochem, La Jolla, Calif., USA), PD98059 (Biomol, Plymouth Meeting, Pa., USA), SB203580 (Biomol, Plymouth Meeting, Pa., USA) and GF109203X (PKC inhibitor, Calbiochem, La Jolla, Calif., USA). Acrosome reaction was determined as described elsewhere (Rotem et al., 1992).

human spermatozoa = experiment: Drug effect on sperm motility (progressive flagellar motility)
Protocol: FIG. 8 is a graphic representation of the effect of progesterone and MAPK inhibitors on human spermatozoa motility. Human spermatozoa (5×10^7/ml) were incubated with PD98059 (ERK inhibitor, at 50 μM, FIG. 8, marked with “PD”) and SB203580 (p38 inhibitor, at 50 μM, FIG. 8, marked with “SB”), in the presence or absence of progesterone (at 5 μg/ml, FIG. 8, marked with “P”) for the indicated time. Percent motile spermatozoa was determined in aliquots of 10 μl. Results are expressed as mean ±SEM of three experiments.
Isolation of human sperm samples—Human semen were obtained upon informed consent from healthy donors having normal sperm density, motility and morphology (according to the World Health Organization (WHO) guidelines of 1992) following 3 days of sexual abstinence. Sperm samples were collected into sterile 50 ml tubes and semen was liquefied for 1 hour at 36° C., washed twice with HAM's F-10 medium (Biological Industries, Beth Ha'Emek, Israel) supplemented with 0.3% bovine serum albumin (BSA) and separated from non-sperm cells by a Percoll gradient centrifugation (Sigma-Aldrich Corp., St Louis, Mo., USA) essentially as described elsewhere (Rotem et al., 1990a, b). The resultant sperm sample contained approx. 50×10^6 sperm/ml.
as §1
Drug effect on sperm motility—To test the effect of MAPK inhibitors and progesterone on sperm motility the following drugs were added to the incubation medium: PD98059 (ERK inhibitor, Biomol, Plymouth Meeting, Pa., USA), SB203580 (p38 inhibitor, Biomol, Plymouth Meeting, Pa., USA) and progesterone (Sigma-Aldrich Corp., St Louis, Mo., USA). Progressive flagellar motility was determined as described elsewhere (Rotem et al., 1990a, b).

ERK 1 and ERK 2 = experiment: Determination of phosphorylated ERK by in-gel kinase assay; conditions: human spermatozoa stimulated by progesterone 5 μg/ml, bands of 44 and 42 kDa, data not shown
Protocol: Determination of phosphorylated ERK by in-gel kinase assay—To further substantiate its role in spermatozoa maturation the phosphorylation state of ERK was determined by in-gel kinase assay as described elsewhere (Naor et al., 1999). […] Mitogen-activated protein (MAP) kinase pathways: regulation and physiological functions. Endocr. Rev. 22: 153-183] are active in human spermatozoa.

p38 = experiment: Western blot with antibody against phosphorylated (active) p38; conditions: capacitated human spermatozoa, 0.2 M vanadate, 60 min, FIG. 4c
Protocol: (§2) FIGS. 4a-f are autoradiograms depicting expression and activity of MAPK proteins in human spermatozoa. LβT2 cells were treated for 60 min with 50 ng/ml 12-O-Tetradecanoylphorbol-13-acetate (TPA, FIGS. 4a-f, lane 1) and capacitated human spermatozoa were treated for 60 min with 0.2 M vanadate (FIGS. 4a-f, lane 3) or were remained untreated (FIGS. 4a-f, lane 2). Cell lysates were subsequently prepared and subjected to Western blot analysis with antibodies directed at the active, phosphorylated form of ERK, p38 and JNK (FIGS. 4a, 4c and 4e, respectively), or with antibodies directed at the unphosphorylated form of ERK, p38 and JNK (FIGS. 4b, 4d and 4f, respectively).
(§3) Western blot analysis—Western blot analysis was effected with antibodies directed at ERK, JNK and p38 proteins as well as with antibodies directed at the phosphorylated forms of these MAPK proteins (Sigma Rehovot, Israel). The assay was performed as previously described (Yung et al., 1997).
(§4) Molecular identification of MAPK cascade proteins in human spermatozoa—Capacitated human spermatozoa cell lysate were generated as described and subjected to Western blot analysis using MAPK antibodies specific to either the phosphorylated or the general forms of ERK, p38 and INK proteins. […]

ERK = experiment: Western blot with antibody against phosphorylated (active) ERK; conditions: capacitated human spermatozoa, 0.2 M vanadate, 60 min, FIG. 4a
Protocol: as §2, §3, §4

CNc1ccc2oc(C[C@H]3O[C@@]4(CC[C@H]3C)O[C@H]([C@H](C)C(=O)c3ccc[nH]3)[C@H](C)C[C@H]4C)nc2c1C(=O)O [A23187]
Acrosome reaction ([1]; A23187 10 μM, no inhibitor (Control)): 51 | Acrosome reaction (AR) stimulated by inducer [1]: 140%

CN(C)CCCn1cc(C2=C(c3c[nH]c4ccccc34)C(=O)NC2=O)c2ccccc21 [GF109203X]
AR stimulated by A23187 in the presence of inhibitor [1]: persisted | Acrosome reaction ([1]; GF109203X 100 nM, no inducer (Control)): 19 | Acrosome reaction ([1]; GF109203X 100 nM, with A23187 10 μM): 48 | Acrosome reaction ([1]; GF109203X 100 nM, with MOCK): 28 | Acrosome reaction ([1]; GF109203X 100 nM, with hZP3 50 ng/ml): 18 | Acrosome reaction ([1]; GF109203X 100 nM, with progesterone 5 μg/ml): 15 | stimulated AR observed in the presence of progesterone and hZP-3, effect of inhibitor [1]: markedly inhibited

COc1cccc(-c2cc(=O)c3ccccc3o2)c1N [PD98059]
progressive flagellar motility decreased to (human spermatozoa; human spermatozoa, 50 μM PD98059, transient, FIG. 8): 50% | AR stimulated by A23187 in the presence of inhibitor [1]: persisted | Acrosome reaction ([1]; PD98059 5 μM, no inducer (Control)): 17 | Acrosome reaction ([1]; PD98059 5 μM, with A23187 10 μM): 50 | Acrosome reaction ([1]; PD98059 5 μM, with MOCK): 25 | Acrosome reaction ([1]; PD98059 5 μM, with hZP3 50 ng/ml): 29 | Acrosome reaction ([1]; PD98059 5 μM, with progesterone 5 μg/ml): 18 | stimulated AR observed in the presence of progesterone and hZP-3, effect of inhibitor [1]: markedly inhibited

CC(=O)[C@H]1CC[C@H]2[C@@H]3CCC4=CC(=O)CC[C@]4(C)[C@H]3CC[C@]12C [Progesterone, progesterone]
effect on progressive flagellar motility (human spermatozoa; human spermatozoa, 5 μg/ml progesterone, FIG. 8): no effect | Acrosome reaction (AR) stimulated by inducer [1]: 50% | Acrosome reaction ([1]; progesterone 5 μg/ml, no inhibitor (Control)): 31 | phosphorylation state of ERK (in-gel kinase assay) (ERK 1 and ERK 2): exhibited two phosphorylated bands

C[S+]([O-])c1ccc(-c2nc(-c3ccncc3)c(-c3ccc(F)cc3)[nH]2)cc1 (centres unmarked) [SB203580]
SB203580-induced increase in progressive flagellar motility (human spermatozoa; 50 μM SB203580 co-introduced with 5 μg/ml progesterone, FIG. 8 SB+P): completely abolished | sperm motility (percent motile spermatozoa), FIG. 8 legend (human spermatozoa; SB203580 50 μM in the presence of progesterone 5 μg/ml): normal motility | sperm motility (percent motile spermatozoa), FIG. 8 legend (human spermatozoa; human spermatozoa 5×10^7/ml, SB203580 50 μM): significant increase | increase in progressive flagellar motility (human spermatozoa; human spermatozoa, 50 μM SB203580, FIG. 8): over 120% | AR stimulated by A23187 in the presence of inhibitor [1]: persisted | non-specific increase in AR stimulated by MOCK, effect of inhibitor ([1]; MOCK-stimulated AR): inhibited | Acrosome reaction ([1]; SB203580 20 μM, no inducer (Control)): 17 | Acrosome reaction ([1]; SB203580 20 μM, with A23187 10 μM): 49 | Acrosome reaction ([1]; SB203580 20 μM, with MOCK): 15 | Acrosome reaction ([1]; SB203580 20 μM, with hZP3 50 ng/ml): 28 | Acrosome reaction ([1]; SB203580 20 μM, with progesterone 5 μg/ml): 11 | stimulated AR observed in the presence of progesterone and hZP-3, effect of inhibitor [1]: markedly inhibited

[O]=[V]([O-])([O-])[O-] [vanadate]
phosphorylated form of p38 (Western blot signal) (p38): regardless of vanadate treatment | phosphorylated ERK (Western blot signal) (ERK): could be detected only following treatment; also recorded: increased band intensity
